According to article PMC5777145 (Analytical chemistry, 2017):
Entries after “also recorded” stand apart in the source; their conditions may differ.

Legend:
salmon testes DNA [1] = settings: for ECL intensity vs enzyme reaction time, DNA oxidation (8-oxodG): 3 mM 4ABP, AF or anisidine, 5 mM NA, pH 7.4 + NADPH regenerating system + Cu2+, different cyt P450 sources, ECL at 0.7 V
DNA = settings: cited from earlier work
[2] = ref International Agency for Research on Cancer (IARC); cited from earlier work
cyt P450s = test: Mass spectrometry of metabolites after incubation with cyt P450s, NADPH and Cu2+; assay type: in vitro ADME; settings: positive-ion electrospray MS
[3] = rodent TD50, Comet assay; cited from earlier work
salmon testes DNA [4] = system: salmon testes DNA

Nc1ccc2c(c1)Cc1ccccc1-2 [AF, 2-aminofluorene]
ECL intensity vs enzyme reaction time, DNA oxidation (8-oxodG) (salmon testes DNA [1]): increases in ECL with reaction time

Nc1ccc(-c2ccccc2)cc1 [4ABP, 4-Aminobiphenyl]
ECL intensity vs enzyme reaction time, DNA oxidation (8-oxodG) (salmon testes DNA [1]): increase in ECL intensity with reaction time
major DNA adduct found (DNA): N-(2′-deoxyguanosin-8-yl)-4-aminobiphenyl
carcinogen classification [2]: group I carcinogen

Nc1ccc2ccccc2c1 [NA, 2-naphthylamine]
relative turnover rate R, DNA oxidation (level in words) (salmon testes DNA [1]): smaller R values
ECL intensity vs enzyme reaction time, DNA oxidation (8-oxodG) (salmon testes DNA [1]): increases in ECL with reaction time
influence of cyt P450 source on relative DNA oxidation rate (salmon testes DNA [1]; human, rat (enzyme sources), salmon (DNA), pH 7.4): Supersome 1A2 had the largest relative DNA oxidation and adduction rates
order of relative DNA oxidation rates (salmon testes DNA [1]; pH 7.4): 4-ABP > AF ≈ anisidine > NA
metabolites found (cyt P450s): hydronitroxide radical; also recorded: nitroso naphthalene
major DNA adduct found (DNA): N-(2′-deoxyguanosin-8-yl)-2-naphthylamine
toxicity by conventional bioassays [3]: relative lower levels of toxicity
order of relative DNA adduction rate (salmon testes DNA [4]): 4-ABP > AF > anisidine > NA
relative turnover rate R, DNA adduction (level in words) (salmon testes DNA [4]; array R values): smaller R values
influence of cyt P450 source on relative DNA adduction rate (salmon testes DNA [4]; human, rat (enzyme sources), salmon (DNA)): Supersome 1A2 had the largest relative DNA oxidation and adduction rates

COc1ccccc1N [anisidine, o-anisidine]
ECL intensity vs enzyme reaction time, DNA oxidation (8-oxodG) (salmon testes DNA [1]): increases in ECL with reaction time
metabolites found (cyt P450s): o-aminophenol
major DNA adduct found (DNA): N-(2′-deoxyguanosin-8-yl)-2-methoxyaniline
carcinogen classification [2]: group 2B carcinogen
